# In patent publication USRE47689E1, “Compounds for treating spinal muscular atrophy” (PTC Therapeutics, Inc., priority 2011, dated 2019):
# Read-outs that look alike come from different tables or passages of the source.
# How the values were obtained:
# [1] = system: SMN2 minigene (full length SMN2 minigene mRNA containing SMN2 exon 7); experiment: SMN2 minigene mRNA splicing RT-qPCR assay in cultured cells; type: cell-based, human; conditions: Homo sapiens, HEK293-H, read-out: EC1.5x for production of full length SMN2 mRNA
# Procedure, shortened: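 Read-out: full-length (exon 7-included) SMN2 minigene mRNA by multiplex RT-qPCR with GAPDH, efficiency-corrected (1+E)^−Ct, GAPDH-normalized and divided by vehicle. Stably transfected HEK293H cells, 24 h compound exposure, duplicates per concentration. Value is EC1.5x, reported as star ranges.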
# [2] = system: Smn protein; experiment: Smn protein assay in cultured cells (SMN HTRF); type: cell-based, human; conditions: 48 hours; for EC1.5x (concentration giving 1.5-fold Smn protein increase): SMA Type 1 patient fibroblast cells (GM03813), 7-point concentration curve, SMN HTRF, concentration producing 1.5 times Smn protein vs DMSO vehicle control, read-out: EC1.5x for Smn protein expression; for maximum fold (Fold) increase of Smn protein: SMA patient fibroblast cells, 7-point concentration data, fold increase relative to vehicle control (SMN HTRF)
# Procedure, shortened: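 Lysates in RIPA with protease inhibitors are incubated overnight at room temperature with HTRF anti-SMN antibodies. EC1.5x is derived from fold increase in ΔF over vehicle.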
# [3] = HEK293H cells stably transfected with SMN2-A minigene, 24 hours, 7-point concentration curve, 1.5-fold relative to vehicle-treated cells
SMILES,melting point [°C],"EC (1.5-fold) [1, 3] [µM]",EC1.5x (concentration giving 1.5-fold Smn protein increase) [2] [nM],maximum fold (Fold) increase of Smn protein [2],EC (1.5-fold) ([1]; 24 h) [µM]
"Cc1cn2cc(-c3cc4ccc(CCN5CCNCC5)cc4oc3=O)nc2c(C)n1 [Compound 866, 3-(6,8-dimethylimidazo[1,2-a]pyrazin-2-yl)-7-[2-(piperazin-1-yl)ethyl]-2H-chromen-2-one]",186 to 188,0.1 to 0.3,300 to 1000,*** (fold increase between >1.35 and ≤1.5),–
"COc1ccc(-c2cc3c(F)cc(N4C[C@@H]5C[C@H]4CN5)cc3oc2=O)cc1OC [Compound 446, 7-[(1S,4S)-2,5-diazabicyclo[2.2.1]hept-2-yl]-3-(3,4-dimethoxyphenyl)-5-fluoro-2H-chromen-2-one]",239 to 241,3 to 30,–,* (maximum fold increase of ≤1.2),–
"CCc1ccn2cc(-c3cc4ccc(N5CCCN(C)CC5)cc4oc3=O)nc2c1 [Compound 333, 3-(7-ethylimidazo[1,2-a]pyridin-2-yl)-7-(4-methyl-1,4-diazepan-1-yl)-2H-chromen-2-one]",181 to 187,0.3 to 1,–,* (maximum fold increase of ≤1.2),–
"Cc1cn2cc(-c3cc4ccc(N5C[C@H]6CCCN[C@H]6C5)cc4oc3=O)nc2c(C)n1 [Compound 655, 3-(6,8-dimethylimidazo[1,2-a]pyrazin-2-yl)-7-[(4aR,7aR)-octahydro-6H-pyrrolo[3,4-b]pyridin-6-yl]-2H-chromen-2-one]",259 to 269,< 0.1,< 300,**** (fold increase between >1.5 and ≤1.65),–
"CCN1CCN(c2ccc3cc(-c4cn5cc(Cl)nc(C)c5n4)c(=O)oc3c2)CC1 [Compound 766, 3-(6-chloro-8-methylimidazo[1,2-a]pyrazin-2-yl)-7-(4-ethylpiperazin-1-yl)-2H-chromen-2-one]",228 to 230,< 0.1,–,*** (fold increase between >1.35 and ≤1.5),–
"Cc1nc(Cl)cn2cc(-c3cc4ccc(N5CCN6CCC[C@H]6C5)cc4oc3=O)nc12 [Compound 711, 3-(6-chloro-8-methylimidazo[1,2-a]pyrazin-2-yl)-7-[(8aS)-hexahydropyrrolo[1,2-a]pyrazin-2(1H)-yl]-2H-chromen-2-one]",260 to 262,< 0.1,1000 to 3000,*** (fold increase between >1.35 and ≤1.5),–
"Cc1cn2cc(-c3cc4ccc(N5C[C@@H]6C[C@H]5CN6C)cc4oc3=O)nc2c(C)n1 [Compound 696, 3-(6,8-dimethylimidazo[1,2-a]pyrazin-2-yl)-7-[(1S,4S)-5-methyl-2,5-diazabicyclo[2.2.1]hept-2-yl]-2H-chromen-2-one]",219 to 226,< 0.1,< 300,***** (fold increase >1.65),–
"CN1CCN(c2ccc3cc(-c4cn5cnccc5n4)c(=O)oc3c2)CC1 [Cpd 458, 3-(imidazo[1,2-c]pyrimidin-2-yl)-7-(4-methylpiperazin-1-yl)-2H-chromen-2-one]",253 to 255,0.3 to 1,–,*** (fold increase between >1.35 and ≤1.5),–
"Cc1ccn2cc(-c3cc4ccc(N5CCNC6(CCC6)C5)cc4oc3=O)nc2c1 [Compound 595, 7-(5,8-diazaspiro[3.5]non-8-yl)-3-(7-methylimidazo[1,2-a]pyridin-2-yl)-2H-chromen-2-one]",226 to 233,0.3 to 1,–,** (fold increase between >1.2 and ≤1.35),–
"Cc1cc2cc(-c3cc4ccc(N5CCNCC5)cc4oc3=O)oc2c(C)n1 [Cpd 723, 3-(5,7-dimethylfuro[2,3-c]pyridin-2-yl)-7-(piperazin-1-yl)-2H-chromen-2-one]",218 to 220,< 0.1,< 300,***** (fold increase >1.65),–
"CCCN1CCC(c2ccc3cc(-c4cn5cc(C)nc(C)c5n4)c(=O)oc3c2)CC1 [Compound 842, 3-(6,8-dimethylimidazo[1,2-a]pyrazin-2-yl)-7-(1-propylpiperidin-4-yl)-2H-chromen-2-one]",208 to 212,< 0.1,< 300,***** (fold increase >1.65),–
"O=C(Oc1ccc2cc(-c3nc4c(Cl)cccc4s3)c(=O)oc2c1)N1CCNCC1 [Cpd 42, 3-(4-chloro-1,3-benzothiazol-2-yl)-2-oxo-2H-chromen-7-yl piperazine-1-carboxylate]",236 to 239,–,–,* (maximum fold increase of ≤1.2),1 to 3
"CN(CCO)Cc1ccc2cc(-c3cn4ccsc4n3)c(=O)oc2c1 [Compound 345, 7-{[(2-hydroxyethyl)(methyl)amino]methyl}-3-(imidazo[2,1-b][1,3]thiazol-6-yl)-2H-chromen-2-one]",145 to 148,1 to 3,3000 to 10000,*** (fold increase between >1.35 and ≤1.5),–
"Cc1ccn2cc(-c3cc4ccc(N5CCNCC5)cc4oc3=O)nc2n1 [Compound 223, 3-(7-methylimidazo[1,2-a]pyrimidin-2-yl)-7-(piperazin-1-yl)-2H-chromen-2-one]",295 to 298,0.3 to 1,–,* (maximum fold increase of ≤1.2),–
"Cc1cn2cc(-c3cc4ccc(C5CCNCC5)cc4oc3=O)nc2cn1 [Compound 868, 3-(6-methylimidazo[1,2-a]pyrazin-2-yl)-7-(piperidin-4-yl)-2H-chromen-2-one]",247 to 253,< 0.1,< 300,***** (fold increase >1.65),–

# More lines, main results first:
melting point [°C],SMILES,"EC (1.5-fold) [1, 3] [µM]",EC1.5x (concentration giving 1.5-fold Smn protein increase) [2] [nM],maximum fold (Fold) increase of Smn protein [2],EC (1.5-fold) ([1]; 24 h) [µM]
115 to 118,"Cc1cn2cc(-c3cc4ccc(N5CCCN(C(C)C)CC5)cc4oc3=O)cc2c(C)n1 [Compound 754, 3-(1,3-dimethylpyrrolo[1,2-a]pyrazin-7-yl)-7-[4-(propan-2-yl)-1,4-diazepan-1-yl]-2H-chromen-2-one]",< 0.1,–,*** (fold increase between >1.35 and ≤1.5),–
287 to 289,"Cc1cn2cc(-c3cc4ccc(N5CCN(C6CC6)CC5)cc4oc3=O)nc2cn1 [Compound 811, 7-(4-cyclopropylpiperazin-1-yl)-3-(6-methylimidazo[1,2-a]pyrazin-2-yl)-2H-chromen-2-one]",0.3 to 1,300 to 1000,**** (fold increase between >1.5 and ≤1.65),–
173 to 175,"CCN1CCN(c2ccc3cc(-c4cc5c(C)nc(C)cn5c4)c(=O)oc3c2)C[C@@H]1C [Compound 694, 3-(1,3-dimethylpyrrolo[1,2-a]pyrazin-7-yl)-7-[(3S)-4-ethyl-3-methylpiperazin-1-yl]-2H-chromen-2-one]",< 0.1,< 300,**** (fold increase between >1.5 and ≤1.65),–
170 to 173,"Cc1cn2cc(-c3cc4ccc(N5CCN6CCC[C@@H]6C5)cc4oc3=O)cc2c(C)n1 [Compound 669, 3-(1,3-dimethylpyrrolo[1,2-a]pyrazin-7-yl)-7-[(8aR)-hexahydropyrrolo[1,2-a]pyrazin-2(1H)-yl]-2H-chromen-2-one]",< 0.1,< 300,***** (fold increase >1.65),–
217 to 220,"Cc1nc(Cl)cn2cc(-c3cc4ccc(N5CCN(C)CC5)cc4oc3=O)nc12 [Compound 764, 3-(6-chloro-8-methylimidazo[1,2-a]pyrazin-2-yl)-7-(4-methylpiperazin-1-yl)-2H-chromen-2-one]",< 0.1,–,** (fold increase between >1.2 and ≤1.35),–
295 to 297,"Cc1cn2cc(-c3cc4ccc(N5CCN6CCC[C@H]6C5)cc4oc3=O)cnc2n1 [Compound 649, 7-[(8aS)-hexahydropyrrolo[1,2-a]pyrazin-2(1H)-yl]-3-(2-methylimidazo[1,2-a]pyrimidin-6-yl)-2H-chromen-2-one]",0.1 to 0.3,300 to 1000,***** (fold increase >1.65),–
280 to 282,"Cc1cn2cc(-c3cc4ccc(N5CCN(C)[C@H](C)C5)cc4oc3=O)cnc2n1 [Compound 660, 7-[(3R)-3,4-dimethylpiperazin-1-yl]-3-(2-methylimidazo[1,2-a]pyrimidin-6-yl)-2H-chromen-2-one]",< 0.1,300 to 1000,***** (fold increase >1.65),–
253 to 255,"Cc1cn2cc(-c3cc4ccc(N5CCCN(C)CC5)cc4oc3=O)nc2c(C)n1 [Compound 519, 3-(6,8-dimethylimidazo[1,2-a]pyrazin-2-yl)-7-(4-methyl-1,4-diazepan-1-yl)-2H-chromen-2-one]",< 0.1,< 300,***** (fold increase >1.65),–
